Values after ≈ are worked out from the molar mass of the structure shown. Read-outs that look alike come from different tables or passages of the source. Non-standard residues stand in square brackets, D forms with d. Residues, ends and D or L forms follow the SMILES beside them.
Tests used:
[1] = EYPG vesicle leakage assay; format: biochemical; details: 10 μg/mL of compound; 10 mM TRIS, 107 mM NaCl, pH 7.4
Protocol: (§1) 5(6)-carboxyfluorescein (CF) was purchased from Sigma. EYPC, EYPG, and a Mini-Extruder were purchased from Avanti Polar Lipids. Egg PC or Egg PG thin lipid layers were prepared by evaporating a solution of 100 mg of EYPC or EYPG in 4 mL of MeOH/CHCl3 (1:1) on a rotary evaporator at room temperature and then dried in vacuo overnight. […] Extravesicular components were removed by gel filtration (Sephadex G-50) with 10 mM TRIS, 107 mM NaCl, pH 7.4 buffer. Final conditions: ∼2.5 mM PC or PG; inside: 50 mM CF, 10 mM TRIS, 10 mM NaCl, pH 7.4 buffer; outside: 10 mM TRIS, 107 mM NaCl, pH 7.4. […] The CF efflux was monitored at λem 517 nm (λex 492 nm) as a function of time after addition of the desired volume of peptide from 2 mg/mL stock in mQ water at t = 45 s, 10 and 50 μg/mL were monitored for both EYPC and EYPG. […] Fluorescence intensities were then normalized to the maximal emission intensity using I(t) = (It – I0)/(I∞ – I0) where I0 = It at peptide addition, I∞ = It at saturation of lysis.

[2] = system: S. aureus COL MRSA; details: for MIC S. aureus COL MRSA: MH broth pH 7.4, 16–20 h, 37 °C
How it was run: (§2)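 MTT read-out: lowest concentration with no visible growth (yellow wells, unaided eye) taken as MIC. Inoculum ~5 × 10^5 CFU in MH pH 7.4 from OD600 0.022 dilution; 2-fold compound series; 16–20 h, 37 °C, no shaking.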

[3] = system: P. aeruginosa PAO1
How it was run: as §2

[4] = system: A. baumannii ATCC19606
How it was run: as §2

[5] = system: E. coli W3110
How it was run: as §2

[6] = system: K. pneumoniae NCTC418
How it was run: as §2

[7] = EYPC vesicle leakage assay; format: biochemical; details: 10 μg/mL of compound; 10 mM TRIS, 107 mM NaCl, pH 7.4
Protocol: as §1

[8] = CD spectroscopy, α-helix content; format: physicochemical; details: 5 mM DPC in 7 mM PB buffer pH 7.4, Dichroweb Contin LL set 4
Protocol: CD experiments were measured on a Jasco J-715 spectropolarimeter. All the experiments were performed using Hellma Suprasil 110-QS 0.1 cm cuvettes. For each peptide, the measurements were performed in phosphate buffer (PB, pH = 7.4, 7 mM), 10% TFE, 20% TFE, 5 mM DPC. The buffer was degassed for 10 min under high vacuum before each set of experiments. The concentration of the peptides was 0.100 mg/mL, and each sample was measured in one accumulation. The scan rate was 20 nm/min, pitch was 0.5 nm, response was 16 s, and bandwidth was 1.0 nm. The nitrogen flow was kept >8 L/min. After each measurement, the cuvettes were washed successively with milli-Q H2O and PB (pH 7.4). The baseline was recorded under the same conditions and subtracted manually. Primary CD spectra were analyzed using DichroWeb[58] and Contin-LL method (set 4).[74]

[9] = system: human red blood cells; test: Hemolysis assay (MHC)
Protocol: To determine the MHC stock solutions, 8 mg/mL peptide in PBS (pH 7.4) was prepared, and 50 μL was diluted serially by l/2 in 50 μL of PBS (pH 7.4) in a 96-well plate (Costar or Nunc, polystyrene, untreated). […] Plasma was discarded, and the pellet was re-suspended in a 15 mL Falcon tube in 5 mL of PBS. The washing was repeated three times, and the remaining pellet was re-suspended in 10 mL of PBS. The hRBC suspension (50 μL) was added to each well, and the plate was incubated at room temperature for 4 h. MHC end points were determined by visual determination of the wells after the incubation period. Controls on each plate included a blank medium control (50 μL PBS + 50 μL of hRBCs suspension) and a hemolytic activity control (mQ-deionized water 50 μL + 50 μL hRBC suspension).

[10] = supplementary CSV, ranges of Table 1 given as one number
[11] = MH broth pH 7.4, 16–20 h, 37 °C

Compound | EYPG vesicle leakage (%) [1] | MIC S. aureus COL MRSA [2] | MIC S. aureus COL [2, 10] | MIC P. aeruginosa PAO1 [3, 11] | MIC P. aeruginosa PAO1 [3, 10] | MIC A. baumannii ATCC19606 [4, 11] | MIC E. coli W3110 [5, 11] | MIC E. coli W3110 [5, 10] | MIC K. pneumoniae NCTC418 [6, 11] | MIC K. pneumoniae NCTC418 [6, 10] | EYPC vesicle leakage (%) [7] | α-helix content (%) [8] | MHC ([9]; human red blood cells in PBS pH 7.4, 4 h, room temperature) | MHC ([9]; supplementary CSV, human red blood cells) | MIC A. baumannii ATCC19606 ([4]; ATCC19606) | MIC A. baumannii ATCC19606 ([4]; ATCC19606, pH 7.4) | MIC K. pneumoniae NCTC418 ([6]; NCTC418) | MHC [9] | MHC ([9]; pH 7.4)
CC(C)C[C@H](NC(=O)[C@H](CC(C)C)NC(=O)[C@H](CC(C)C)NC(=O)[C@@H](CCCNC(=N)N)NC(=O)[C@H](CC(C)C)NC(=O)[C@H](CC(C)C)NC(=O)[C@@H](CCCNC(=N)N)NC(=O)[C@H](CC(C)C)NC(=O)[C@H](CC(C)C)NC(=O)[C@@H](CCCNC(=N)N)NC(=O)[C@H](N)CCCNC(=N)N)C(N)=O [HP33, rrLLrLLrLLL] (H-[dR][dR]LL[dR]LL[dR]LLL-NH2) | 85% | 2 to 4 µg/mL | 3 µg/mL (≈ 2.09 µM) | 4 to 8 µg/mL | 6 µg/mL (≈ 4.18 µM) | 4 µg/mL (≈ 2.79 µM) | 4 to 8 µg/mL | 6 µg/mL (≈ 4.18 µM) | 4 to 8 µg/mL | 6 µg/mL (≈ 4.18 µM) | 56% | 63% | 125 µg/mL | 125 µg/mL |  |  |  |  | 
H-KKIIKIIKIII-NH2 [HP34] | 95% | >64 µg/mL |  | >64 µg/mL |  |  | 32 µg/mL |  | >64 µg/mL |  | 10% | 68% |  |  | 12 µg/mL | 8 to 16 µg/mL | >64 µg/mL | 63 µg/mL | 62.5 µg/mL

Reference: paper PMC10258794, “To Fold or Not to Fold: Diastereomeric Optimization of an α-Helical Antimicrobial Peptide” (Journal of Medicinal Chemistry, 2023)
